Measurements taken from patent publication US20250059205A1, “Heterocyclic Compounds and Methods of Use” (AMGEN INC., priority 2021, published 2025).

How the values were obtained:
[1] = biological target: His-tagged KRAS G12D protein (Homo sapiens, UniProt P01116, G12D); experiment: KRAS G12D TR-FRET Assay; format: binding
[2] = test system: Phosphorylation of ERK1/2 in AsPC-1 cells; experiment: Phospho-ERK1/2 MSD Assay (AsPC-1 cells); format: cell-based; conditions: Homo sapiens, ASPC1, 2 h, 2 hours treatment, read-out: p-ERK (AsPC-1 cells) IC50
Procedure, shortened: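 Read-out: MSD electrochemiluminescent detection of phosphorylated ERK1/2 in whole-cell lysates, fitted to a 4-parameter logistic curve for IC50. Prior to lysis, AsPC-1 cells (25,000 per well) received a 2 h compound dose-response at 37 °C.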

[3] = test system: Phosphorylation of ERK1/2 in A-427 cells; experiment: Phospho-ERK1/2 MSD Assay (A-427 cells); format: cell-based; conditions: Homo sapiens, A-427, 2 h, 2 h treatment, read-out: p-ERK (A427 cells) IC50
Procedure, shortened: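 ERK1/2 phosphorylation measured by Meso Scale whole-cell lysate assay after A-427 cells were exposed to a titration of compound for 2 h at 37 °C.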

[4] = biological target: GDP-bound KRAS protein (aa 1-169), containing both G12D and C118A amino acid substitutions (Homo sapiens, UniProt P01116, C118A/G12D); experiment: KRAS G12D Coupled Nucleotide Exchange Assay; format: biochemical; conditions: 2 h compound pre-incubation
Experimental: Following compound pre-incubation, purified SOS protein (aa 564-1049) and GTP (Roche 10106399001) were added to the assay wells and incubated for an additional 30 min. […] The assay plates were then read on a PerkinElmer EnVision Multilabel Reader, using AlphaScreen® technology, and data were analyzed using a 4-parameter logistic model to calculate IC50 values.

Chain of GDP-bound KRAS protein (aa 1-169), containing both G12D and C118A amino acid substitutions (P01116 1-169 isoform P01116-2 G12D/C118A): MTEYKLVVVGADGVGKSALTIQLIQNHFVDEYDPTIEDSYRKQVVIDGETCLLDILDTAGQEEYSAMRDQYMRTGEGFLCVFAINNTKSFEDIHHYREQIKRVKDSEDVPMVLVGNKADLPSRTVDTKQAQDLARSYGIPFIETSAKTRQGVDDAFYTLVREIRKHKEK
Chain of His-tagged KRAS G12D protein (P01116 1-188 isoform P01116-2 G12D): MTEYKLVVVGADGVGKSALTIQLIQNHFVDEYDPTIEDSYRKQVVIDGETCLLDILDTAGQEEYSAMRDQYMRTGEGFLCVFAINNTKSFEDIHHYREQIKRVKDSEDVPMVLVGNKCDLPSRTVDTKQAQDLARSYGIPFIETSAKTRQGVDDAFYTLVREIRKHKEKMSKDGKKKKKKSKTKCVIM

Compound | IC50 [1] | IC50 [2] | IC50 [3] | Avg 2 h Coupled Exchange IC50 [4]
CCc1c(F)ccc2cc(O)cc(-c3cc4nc(OC[C@@]56CCCN5C[C@H](F)C6)nc(N5C[C@@H]6CC[C@H]5CN6)c4cc3F)c12 [Example 174, 4-(4-((1S,4S)-2,5-diazabicyclo[2.2.2]octan-2-yl)-6-fluoro-2-(((2R,7aS)-2-fluorotetrahydro-1H-pyrrolizin-7a(5H)-yl)methoxy)quinazolin-7-yl)-5-ethyl-6-fluoronaphthalen-2-ol] | 4 nM | 64 nM | 57 nM | 5 nM
CCc1c(F)ccc2cc(O)cc(-c3c(F)cc4c(N5[C@@H]6CNC[C@H]5COC6)nc(OC[C@@]56CCCN5C[C@H](F)C6)nc4c3F)c12 [Example 151, 4-(4-((1R,5S)-3-oxa-7,9-diazabicyclo[3.3.1]nonan-9-yl)-6,8-difluoro-2-(((2R,7aS)-2-fluorotetrahydro-1H-pyrrolizin-7a(5H)-yl)methoxy)quinazolin-7-yl)-5-ethyl-6-fluoronaphthalen-2-ol] | 4 nM | 123 nM | 65 nM | 3 nM
C#Cc1cccc2cc(O)cc(-c3c(F)cc4c(N5C[C@H]6CC[C@@H](C5)N6)nc(OC[C@@]56CCCN5C[C@H](F)C6)nc4c3F)c12 [Example 190, 4-(4-((1R,5S)-3,8-diazabicyclo[3.2.1]octan-3-yl)-6,8-difluoro-2-(((2R,7aS)-2-fluorotetrahydro-1H-pyrrolizin-7a(5H)-yl)methoxy)quinazolin-7-yl)-5-ethynylnaphthalen-2-ol] | 4 nM | 4 nM | 1 nM | 5 nM
Nc1ccc(C2CC2)c(-c2c(F)cc3c(N4C[C@@H]5CC[C@H]4CN5)nc(OC[C@@]45CCCN4C[C@H](F)C5)nc3c2F)c1 [Example 115, 3-(4-((1S,4S)-2,5-diazabicyclo[2.2.2]octan-2-yl)-6,8-difluoro-2-(((2R,7aS)-2-fluorotetrahydro-1H-pyrrolizin-7a(5H)-yl)methoxy)quinazolin-7-yl)-4-cyclopropylaniline] | 32 nM | 2790 nM | 2740 nM | 23 nM
Oc1cc(-c2ccc3c(N4C[C@H]5CC[C@@H](C4)N5)nc(OC[C@@]45CCCN4C[C@H](F)C5)nc3c2F)c2c(Cl)cccc2c1 [Example 56, 4-(4-((1R,5S)-3,8-diazabicyclo[3.2. 1]octan-3-yl)-8-fluoro-2-(((2R,7aS)-2-fluorotetrahydro-1H-pyrrolizin-7a(5H)-yl)methoxy)quinazolin-7-yl)-5-chloronaphthalen-2-ol] | 5 nM | 109 nM | 23 nM | 4 nM
Cc1c(-c2cc(O)cc3ccccc23)ccc2c(N3C[C@H]4CC[C@@H](C3)N4)nc(OC[C@@]34CCCN3C[C@H](F)C4)nc12 [Example 33, 4-(4-((1R,5S)-3,8-diazabicyclo[3.2. 1]octan-3-yl)-2-(((2R,7aS)-2-fluorotetrahydro-1H-pyrrolizin-7a(5H)-yl)methoxy)-8-methylquinazolin-7-yl)naphthalen-2-ol] | 8 nM | 509 nM | 291 nM | 3 nM
CCc1c(F)ccc2cc(O)cc(-c3cc(F)c4c(N5C[C@H]6CC[C@@H](C5)N6)nc(OC[C@@]56CCCN5C[C@H](F)C6)nc4c3F)c12 [Example 231, 4-(4-((1R,5S)-3,8-diazabicyclo[3.2.1]octan-3-yl)-5,8-difluoro-2-(((2R,7aS)-2-fluorotetrahydro-1H-pyrrolizin-7a(5H)-yl)methoxy)quinazolin-7-yl)-5-ethyl-6-fluoronaphthalen-2-ol] | 4 nM | 68 nM | 15 nM | 5 nM
CN1C[C@H](F)C[C@H]1COc1nc(N2[C@@H]3CC[C@H]2CNC3)c2cc(F)c(-c3cc(O)cc4cccnc34)c(F)c2n1 [Example 30, 8-(4-((1R,5S)-3,8-diazabicyclo[3.2. 1]octan-8-yl)-6,8-difluoro-2-(((2S,4R)-4-fluoro-1-methylpyrrolidin-2-yl)methoxy)quinazolin-7-yl)quinolin-6-ol] | 559 nM | 21500 nM | 17700 nM | 158 nM
CC(C)(O)COc1nc(N2C[C@H]3CC[C@@H](C2)N3)c2cc(F)c(-c3cc(O)cc4ccccc34)c(F)c2n1 [Example 64, 4-(4-((1R,5S)-3,8-diazabicyclo[3.2. 1]octan-3-yl)-6,8-difluoro-2-(2-hydroxy-2-methylpropoxy)quinazolin-7-yl)naphthalen-2-ol] | 51 nM | 7030 nM | 5050 nM | 17 nM
Oc1cc(-c2c(F)cc3c(N4C[C@@H]5CC[C@H]4CN5)nc(OC[C@@]45CCCN4C[C@H](F)C5)nc3c2F)c2c(F)c(F)ccc2c1 [Example 157, 4-(4-((1S,4S)-2,5-diazabicyclo[2.2.2]octan-2-yl)-6,8-difluoro-2-(((2R,7aS)-2-fluorotetrahydro-1H-pyrrolizin-7a(5H)-yl)methoxy)quinazolin-7-yl)-5,6-difluoronaphthalen-2-ol] | 4 nM | 46 nM | 9 nM | 4 nM
Oc1cc(-c2ccc3c(N4C[C@H]5CC[C@@H](C4)N5)nc(OC[C@@]45CCCN4C[C@H](F)C5)nc3c2)c2c(F)c(F)ccc2c1 [Example 77, 4-(4-((1R,5S)-3,8-diazabicyclo[3.2. 1]octan-3-yl)-2-(((2R,7aS)-2-fluorotetrahydro-1H-pyrrolizin-7a(5H)-yl)methoxy)quinazolin-7-yl)-5,6-difluoronaphthalen-2-ol] | 3 nM | 62 nM | 38 nM | 2 nM
C#Cc1cccc2cc(O)cc(-c3ccc4c(N5C[C@H]6CC[C@@H](C5)N6)nc(OC[C@@]56CCCN5C[C@H](F)C6)nc4c3F)c12 [Example 185, 4-(4-((1R,5S)-3,8-diazabicyclo[3.2.1]octan-3-yl)-8-fluoro-2-(((2R,7aS)-2-fluorotetrahydro-1H-pyrrolizin-7a(5H)-yl)methoxy)quinazolin-7-yl)-5-ethynylnaphthalen-2-ol] | 1 nM | 16 nM | 1 nM | 1 nM
CCc1c(F)ccc2cc(O)cc(-c3c(F)cc4c(N5[C@@H]6CCC[C@H]5CNC6)nc(OC[C@@]56CCCN5C[C@H](F)C6)nc4c3F)c12 [Example 172, 4-(4-((1R,5S)-3,9-diazabicyclo[3.3.1]nonan-9-yl)-6,8-difluoro-2-(((2R,7aS)-2-fluorotetrahydro-1H-pyrrolizin-7a(5H)-yl)methoxy)quinazolin-7-yl)-5-ethyl-6-fluoronaphthalen-2-ol] | 85 nM | 2920 nM | 5430 nM | 36 nM
Nc1cc2ccccc2c(-c2ccc3c(N4CC5CCC(C4)N5)nc(OC[C@@]45CCCN4C[C@H](F)C5)nc3c2F)n1 [Example 220] | 60 nM | 4400 nM | 2860 nM | 22 nM
